Data published in US12435051B2, “Dual modulator of mGluR5 and 5-HT2A receptor, and use thereof” (Vivozon Inc., priority 2020, dated 2025).
Where two headings read alike, the source gives them in different places.

Tests used:
[1] = system: spinal nerve ligation model (neuropathic pain model); assay: Confirmation of synergistic analgesic effect via dual action (spinal nerve ligation model); type: in vivo; settings: sub-effective doses, FIG. 1
Method: The confirmation of the synergistic analgesic effect via the dual action of mGluR5 and 5-HT2AR was carried out by the use of representative mGluR5 antagonist MPEP (2-methyl-6-(phenylethynyl)pyridine) and 5-HT2AR antagonist MDL11,939 in a “spinal nerve ligation model” which is a neuropathic pain model.
In order to measure the analgesic effect of MPEP and MDL11,939, when administered alone or simultaneously together, the reversibility rate of pain relieving parameter (% reversal) was calculated according to the method of Experimental Example 4 and the results are represented in FIG. 1.

[2] = target: T1, human 5-HT2AR (Homo sapiens, UniProt P28223); assay: HTRF-based IP1 accumulation assay (5-HT2AR antagonistic effect); type: cell-based; settings: HEK293 cells overexpressing human 5-HT2AR; serotonin at EC80
T1 construct: expressed in transfected cells; host or cells: HEK293
T1 sequence (P28223 whole entry): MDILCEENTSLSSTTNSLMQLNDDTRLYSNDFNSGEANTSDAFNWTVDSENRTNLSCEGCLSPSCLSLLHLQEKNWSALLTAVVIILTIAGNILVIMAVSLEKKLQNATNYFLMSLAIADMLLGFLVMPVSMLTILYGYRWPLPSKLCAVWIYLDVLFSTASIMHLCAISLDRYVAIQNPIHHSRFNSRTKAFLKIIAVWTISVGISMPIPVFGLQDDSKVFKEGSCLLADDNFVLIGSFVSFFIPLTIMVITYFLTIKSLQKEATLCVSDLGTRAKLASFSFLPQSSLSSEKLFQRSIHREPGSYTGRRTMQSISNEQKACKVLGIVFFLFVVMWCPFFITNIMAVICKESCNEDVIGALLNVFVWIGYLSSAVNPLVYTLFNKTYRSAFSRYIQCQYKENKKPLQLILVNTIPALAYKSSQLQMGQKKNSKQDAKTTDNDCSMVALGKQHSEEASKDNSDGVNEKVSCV
How it was run: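 HEK293 cells stably overexpressing human 5-HT2AR were pre-incubated with compound (top 10 μM, serial dilutions, LiCl buffer) 10 min at room temperature, then stimulated with EC80 serotonin 30 min at 37 °C. IP1 accumulation was read by HTRF; IC50s came from activity normalized to serotonin and IP1 controls.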

[3] = target: T2, mGluR5 (Homo sapiens, UniProt P41594); assay: Fluorescence-based Ca2+ mobilization assay; type: cell-based; settings: HEK293 cells overexpressing mGluR5; L-glutamate at EC80
T2 construct: expressed in transfected cells; host or cells: HEK293
T2 sequence (P41594 21-1212): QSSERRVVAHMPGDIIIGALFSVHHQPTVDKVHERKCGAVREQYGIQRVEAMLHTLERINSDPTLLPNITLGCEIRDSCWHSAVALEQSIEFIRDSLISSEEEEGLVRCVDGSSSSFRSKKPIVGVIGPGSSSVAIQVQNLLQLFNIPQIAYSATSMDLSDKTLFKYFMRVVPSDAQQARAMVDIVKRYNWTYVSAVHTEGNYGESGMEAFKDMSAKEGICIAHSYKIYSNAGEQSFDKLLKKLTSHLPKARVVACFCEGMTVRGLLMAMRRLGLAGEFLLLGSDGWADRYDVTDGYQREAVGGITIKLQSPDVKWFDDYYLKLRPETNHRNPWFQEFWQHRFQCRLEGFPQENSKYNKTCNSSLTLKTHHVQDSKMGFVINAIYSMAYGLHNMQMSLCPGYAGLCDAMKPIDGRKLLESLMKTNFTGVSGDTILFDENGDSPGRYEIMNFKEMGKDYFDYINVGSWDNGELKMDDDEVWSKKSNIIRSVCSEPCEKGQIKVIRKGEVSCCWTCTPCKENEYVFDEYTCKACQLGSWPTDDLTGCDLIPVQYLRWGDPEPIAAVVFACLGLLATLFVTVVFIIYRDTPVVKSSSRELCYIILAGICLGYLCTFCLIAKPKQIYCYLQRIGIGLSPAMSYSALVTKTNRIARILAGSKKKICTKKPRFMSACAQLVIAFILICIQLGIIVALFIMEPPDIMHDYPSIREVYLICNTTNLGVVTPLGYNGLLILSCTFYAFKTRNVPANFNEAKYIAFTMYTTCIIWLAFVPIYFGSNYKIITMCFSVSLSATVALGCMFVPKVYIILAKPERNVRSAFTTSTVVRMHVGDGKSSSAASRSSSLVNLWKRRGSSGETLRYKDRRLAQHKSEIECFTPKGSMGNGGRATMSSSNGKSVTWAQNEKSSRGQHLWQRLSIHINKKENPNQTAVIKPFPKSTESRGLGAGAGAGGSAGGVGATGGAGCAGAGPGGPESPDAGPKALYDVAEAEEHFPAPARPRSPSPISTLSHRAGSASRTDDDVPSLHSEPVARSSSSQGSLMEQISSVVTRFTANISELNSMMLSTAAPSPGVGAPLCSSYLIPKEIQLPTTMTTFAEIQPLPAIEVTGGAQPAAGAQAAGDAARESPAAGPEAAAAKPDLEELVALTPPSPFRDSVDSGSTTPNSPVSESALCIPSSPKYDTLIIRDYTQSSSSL
How it was run: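 HEK293 cells stably overexpressing mGluR5, dye-loaded 60 min at 37 °C, then preincubated with compound 30 min at room temperature in the dark. Ca2+ response to L-glutamate at EC80 read on FLIPR for 2 min. Signal normalised to glutamate (100%) and vehicle (0%); IC50 from % inhibition.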

[4] = system: physical (tactile) allodynia in spinal nerve ligation model; assay: Analgesic efficacy experiment using animal model (Chung model, spinal nerve ligation); type: in vivo, Sprague-Dawley rats; settings: for inhibition in vivo at 12.5 mg/kg: 12.5 mpk; for inhibition in vivo at 25 mg/kg: 25 mpk
Method: The Chung model (spinal nerve ligation model) is a representative animal model to study neuropathic pain and is widely accepted as a gold standard for an animal pain model by global pharmaceutical companies around the world.
In this experiment, male Sprague-Dawley rats (100-120 g) purchased from Koatech (Pyeongtaek-si, Gyeonggi-do) were used. Rats were kept in a room maintained at constant temperature and humidity with a 12 hour light-dark cycle. Rats were allowed to eat and drink freely during the experiment.
For the Chung surgery, rats were anesthetized by isoflurane inhalation and the left lumbar nerves L5 and L6 were tightly tied with a suture thread (6-0 silk thread) at the end of the dorsal ganglion and at a front of an entrance to the sciatic nerve according to the article (Kim and Chung (1992), Pain 50(3):355-63). After suturing the incision, the rats were recovered for 2 weeks in the controlled maintenance room to induce physical allodynia in the left hind paw of the rat. To measure physical (tactile) allodynia, the rats were placed in a cage with a wire mesh on the bottom. Stimuli of increasing intensity (using the von Frey filaments in a range of 0.41 to 15.8 g) were placed on the plantar surface on the side of the nerve injury. The stimulus intensity at which the pain response (abrupt lifting, licking or sucking of the foot) was induced was recorded while applying gradual increment of stimuli. As described in the study of Chaplan et al. (1994) (Chaplan et al. (1994) J. Neurosci. Methods 53(1):55-63), the paw withdrawal threshold (PWT) was determined by increasing or decreasing continuous stimulus intensity, and the result was analyzed by applying Dixon's up-down method. Only rats showing no behavior dysfunction (e.g., feet dragging or dropping) were selected and included in the study, and the PWT of the rats used was 3.16 g or less.
After measuring the degree of basic reaction before drug injection, each compound and solvent were injected by oral administration (12.5-100 mg/kg), and the measurement was repeated at regular time intervals (60 and 120 minutes) after the drug was injected.
The experimenter conducted the PWT measurement in a blind condition not knowing which rat was administered with which drug. The control group was administered with gabapentin (65 mg/kg, intraperitoneal administration), and was randomly mixed during the measurement. Statistical analysis was performed on the measured pain response threshold by calculating the reversal rate (% reversal) from pain in Equation 1 below. […] Pain reversal rate (% reversal)=[(PWT after drug administration)−(PWT before drug administration)]*100/[(15 g, Estimated PWT in normal animals)−(PWT before drug administration)] [Equation 1]
The PWT used in this time is a value obtained by multiplying the gram, the unit of “force” measure, by 10,000, and taking the logarithm, which is a method generally used in academia.
Each experiment consisted of the compound group, the solvent group of the compound and the gabapentin (GBP) group as positive control group. As solvent of the compound, 0.5% HPMC (hydroxypropylmethyl cellulose) was used.

[5] = rat, oral, 1 h, read-out: % reversal (1 h)
[6] = rat, oral, 2 h, read-out: % reversal (2 h)
[7] = rat, oral, 50 mpk, 1 h, read-out: % reversal (1 h)
[8] = rat, oral, 50 mpk, 2 h, read-out: % reversal (2 h)
[9] = rat, oral, 100 mpk, 1 h, read-out: % reversal (1 h)
[10] = rat, oral, 100 mpk, 2 h, read-out: % reversal (2 h)
[11] = Rattus norvegicus, po, 1 h, read-out: % reversal (1 h)
[12] = Rattus norvegicus, po, 2 h, read-out: % reversal (2 h)

| SMILES | IC50 [2] | IC50 [3] | inhibition in vivo at 50 mg/kg [4, 7] | inhibition in vivo at 50 mg/kg [4, 8] | inhibition in vivo at 100 mg/kg [4, 9] | inhibition in vivo at 100 mg/kg [4, 10] | further results |
| --- | --- | --- | --- | --- | --- | --- | --- |
| Cc1cccc(C#Cc2ccccc2)n1 [MPEP, 2-methyl-6-(phenylethynyl)pyridine] |  |  |  |  |  |  | analgesic effect (% reversal), administered alone [1]: did not show a significant analgesic effect |
| OC(c1ccccc1)C1CCN(CCc2ccccc2)CC1 (stereo not shown) [MDL11,939] |  |  |  |  |  |  | analgesic effect (% reversal), administered alone [1]: did not show a significant analgesic effect |
| O=C(NCC1CCC(F)(F)CC1)c1ccc(C#Cc2ccccc2F)cc1 [Example 39, N-((4,4-difluorocyclohexyl)methyl)-4-((2-fluorophenyl)ethynyl)benzamide] | < 0.1 µM | < 0.1 µM |  |  |  |  | inhibition in vivo at 100 mg/kg [4, 11]: 25.4%; inhibition in vivo at 100 mg/kg [4, 12]: 33.5% |
| CCC1(CNC(=O)c2ccc(C#Cc3ccccc3F)cc2)COC1 [Example 72, N-((3-ethyloxetan-3-yl)methyl)-4-((2-fluorophenyl)ethynyl)benzamide] | 0.1 to 0.5 µM | < 0.1 µM | 41.9% | 71.8% |  |  |  |
| O=C(NCC1CCCCC1O)c1ccc(C#Cc2ccccc2F)cc1 (stereo not shown) [Example 63, 4-((2-fluorophenyl)ethynyl)-N-((2-hydroxycyclohexyl)methyl)benzamide] | 0.1 to 0.5 µM | < 0.1 µM | 70.9% | 42.1% |  |  |  |
| O=C(NCC1CC(F)(F)C1)c1ccc(C#Cc2ccncc2)cc1 [Example 89, N-((3,3-difluorocyclobutyl)methyl)-4-(pyridin-4-ylethynyl)benzamide] | 0.1 to 0.5 µM | < 0.1 µM | 111% | 103% |  |  |  |
| O=C(NCC1(NC2CC2)CCC1)c1ccc(C#Cc2ccncc2)cc1 [Example 5, N-((1-(cyclopropylamino)cyclobutyl)methyl)-4-(pyridin-4-ylethynyl)benzamide] | 0.1 to 0.5 µM | 0.1 to 0.5 µM | 43.1% | 34.4% |  |  |  |
| O=C(NC[C@H]1CCOC1)c1ccc(C#Cc2ccccc2F)cc1 [Example 69, (R)-4-((2-fluorophenyl)ethynyl)-N-((tetrahydrofuran-3-yl)methyl)benzamide] | 0.5 to 1 µM | 0.1 to 0.5 µM |  |  |  |  | inhibition in vivo at 50 mg/kg [4, 11]: 110%; inhibition in vivo at 50 mg/kg [4, 12]: 110% |
| O=C(NCC1(NC2CC2)CCCC1)c1ccc(C#Cc2ccc(F)cn2)cc1 [Example 3, N-((1-(cyclopropylamino)cyclopentyl)methyl)-4-((5-fluoropyridin-2-yl)ethynyl)benzamide] | 0.1 to 0.5 µM | 0.5 to 1 µM | 59% | 87.9% |  |  |  |
| C[C@]1(O)C[C@@H](CNC(=O)c2ccc(C#Cc3ccccc3F)cc2)C1 [Example 87, 4-((2-fluorophenyl)ethynyl)-N-(((1s,3s)-3-hydroxy-3-methylcyclobutyl)methyl)benzamide] | 0.1 to 0.5 µM | < 0.1 µM | 93.7% | 104% |  |  |  |

The next lines start with results.

| IC50 [2] | IC50 [3] | SMILES | inhibition in vivo at 50 mg/kg [4, 7] | inhibition in vivo at 50 mg/kg [4, 8] | inhibition in vivo at 100 mg/kg [4, 9] | inhibition in vivo at 100 mg/kg [4, 10] | further results |
| --- | --- | --- | --- | --- | --- | --- | --- |
| < 0.1 µM | 0.5 to 1 µM | O=C(NCC1(NC2CC2)CCCC1)c1ccc(C#Cc2ccncc2)cc1 [Example 2, N-((1-(cyclopropylamino)cyclopentyl)methyl)-4-(pyridin-4-ylethynyl)benzamide] |  |  |  |  | inhibition in vivo at 12.5 mg/kg [4, 5]: 3.91%; inhibition in vivo at 12.5 mg/kg [4, 6]: 28.1% |
| 0.1 to 0.5 µM | 0.1 to 0.5 µM | O=C(NCC1CCOC1)c1ccc(C#Cc2ccc(F)cc2)cc1 (stereo not shown) [Example 94, 4-((4-fluorophenyl)ethynyl)-N-((tetrahydrofuran-3-yl)methyl)benzamide] | 74.2% | 97.7% |  |  |  |
| 0.1 to 0.5 µM | 0.1 to 0.5 µM | O=C(NCC1(NC2CC2)CCCCCC1)c1ccc(C#Cc2ccccc2F)cc1 [Example 12, N-((1-(cyclopropylamino)cycloheptyl)methyl)-4-((2-fluorophenyl)ethynyl)benzamide] |  |  | 53.8% | 74.8% |  |
| 0.1 to 0.5 µM | 0.1 to 0.5 µM | O=C(NCC1CCO1)c1ccc(C#Cc2ccccc2F)cc1 (stereo not shown) [Example 58, 4-((2-fluorophenyl)ethynyl)-N-(oxetan-2-ylmethyl)benzamide] |  |  |  |  | inhibition in vivo at 25 mg/kg [4, 5]: 61.5%; inhibition in vivo at 25 mg/kg [4, 6]: 28.3% |
| 0.1 to 0.5 µM | < 0.1 µM | O=C(NCC1(CO)CCCCC1)c1ccc(C#Cc2ccccc2F)cc1 [Example 37, 4-((2-fluorophenyl)ethynyl)-N-((1-(hydroxymethyl)cyclohexyl)methyl)benzamide] |  |  | 37.1% | 18.8% |  |
| < 0.1 µM | 0.5 to 1 µM | O=C(NCC1(NC2CC2)CCCCC1)c1ccc(C#Cc2ccccc2F)cc1 [Example 20, N-((1-(cyclopropylamino)cyclohexyl)methyl)-4-((2-fluorophenyl)ethynyl)benzamide] |  |  | 35% | 67% |  |
| 0.1 to 0.5 µM | 0.1 to 0.5 µM | O=C(NC[C@@H]1CCCO1)c1ccc(C#Cc2ccccc2F)cc1 [Example 46, (S)-4-((2-fluorophenyl)ethynyl)-N-((tetrahydrofuran-2-yl)methyl)benzamide] |  |  | 73% | 99.8% |  |
| 0.1 to 0.5 µM | < 0.1 µM | O=C(NC[C@H]1CCCO1)c1ccc(C#Cc2ccccc2F)cc1 [Example 45, (R)-4-((2-fluorophenyl)ethynyl)-N-((tetrahydrofuran-2-yl)methyl)benzamide] | 77.7% | 50.6% |  |  |  |
| < 0.1 µM | 0.1 to 0.5 µM | CC(C)NC1(CNC(=O)c2ccc(C#Cc3ccccc3F)cc2)CCCCC1 [Example 25, 4-((2-fluorophenyl)ethynyl)-N-((1-(isopropylamino)cyclohexyl)methyl)benzamide] |  |  |  |  | inhibition in vivo at 25 mg/kg [4, 5]: 36.5%; inhibition in vivo at 25 mg/kg [4, 6]: 36.6% |
| < 0.1 µM | 1 to 2 µM | CC(C)NC1(CNC(=O)c2ccc(C#Cc3ccccc3)cc2)CCCCC1 [Example 55, N-((1-(isopropylamino)cyclohexyl)methyl)-4-(phenylethynyl)benzamide] |  |  | 68.9% | 80.2% |  |
| < 0.1 µM | 0.1 to 0.5 µM | O=C(NCC1(NC2CC2)CCC1)c1ccc(C#Cc2ccccc2F)cc1 [Example 9, N-((1-(cyclopropylamino)cyclobutyl)methyl)-4-((2-fluorophenyl)ethynyl)benzamide] |  |  | 64% | 59.6% |  |
| < 0.1 µM | 0.1 to 0.5 µM | O=C(NCC1(NC2CC2)CCCC1)c1ccc(C#Cc2ccccc2F)cc1 [Example 11, N-((1-(cyclopropylamino)cyclopentyl)methyl)-4-((2-fluorophenyl)ethynyl)benzamide] |  |  | 58.7% | 57.4% |  |
